Experimental data from ChEMBL document CHEMBL4507261, “Data for DCP probe A-192621” (2021).

Assays:
[1] = target: 5-hydroxytryptamine receptor 7 (Homo sapiens) (UniProt P34969); conditions: Compound concentration 10.0 uM
[2] = target: Delta-type opioid receptor (Homo sapiens) (UniProt P41143); conditions: Compound concentration 10.0 uM
[3] = target: D(1B) dopamine receptor (Homo sapiens) (UniProt P21918); conditions: Compound concentration 10.0 uM
[4] = target: T1, GABA-A receptor; anion channel (Rattus norvegicus) (UniProt O09028+P15431+P18506+P18508+P19969+P20236+P23574+P23576+P28471+P28473+P30191+P62813+P63079+P63138+Q91ZM7+Q9ES14); conditions: Compound concentration 10.0 uM
[5] = target: Histamine H4 receptor (Homo sapiens) (UniProt Q9H3N8); conditions: Compound concentration 10.0 uM
[6] = target: T1, GABA-A receptor; anion channel (Rattus norvegicus); conditions: Compound concentration 10.0 uM; remark: listed apart in the source
[7] = target: Histamine H2 receptor (Homo sapiens) (UniProt P25021); conditions: Compound concentration 10.0 uM
[8] = target: 5-hydroxytryptamine receptor 1D (Homo sapiens) (UniProt P28221); conditions: Compound concentration 10.0 uM
Endothelin-1 receptor = target: T2, Endothelin-1 receptor (Homo sapiens, UniProt P25101); assay: EDNRA- dependent phosphatidylinositol hydrolysis assay; format: functional
T2 sequence (P25101 whole entry): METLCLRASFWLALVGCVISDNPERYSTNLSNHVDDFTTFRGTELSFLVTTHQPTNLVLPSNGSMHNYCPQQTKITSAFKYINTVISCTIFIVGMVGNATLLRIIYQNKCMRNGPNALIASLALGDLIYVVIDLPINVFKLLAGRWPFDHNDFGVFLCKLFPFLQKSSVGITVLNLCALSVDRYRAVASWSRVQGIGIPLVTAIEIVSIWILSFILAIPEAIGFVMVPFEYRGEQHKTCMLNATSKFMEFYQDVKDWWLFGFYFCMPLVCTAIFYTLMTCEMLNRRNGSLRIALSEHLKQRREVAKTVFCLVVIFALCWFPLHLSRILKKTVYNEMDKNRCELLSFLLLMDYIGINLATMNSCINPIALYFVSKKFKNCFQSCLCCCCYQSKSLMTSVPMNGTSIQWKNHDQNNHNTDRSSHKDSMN

Sequence of D(1B) dopamine receptor (Homo sapiens) (P21918 whole entry): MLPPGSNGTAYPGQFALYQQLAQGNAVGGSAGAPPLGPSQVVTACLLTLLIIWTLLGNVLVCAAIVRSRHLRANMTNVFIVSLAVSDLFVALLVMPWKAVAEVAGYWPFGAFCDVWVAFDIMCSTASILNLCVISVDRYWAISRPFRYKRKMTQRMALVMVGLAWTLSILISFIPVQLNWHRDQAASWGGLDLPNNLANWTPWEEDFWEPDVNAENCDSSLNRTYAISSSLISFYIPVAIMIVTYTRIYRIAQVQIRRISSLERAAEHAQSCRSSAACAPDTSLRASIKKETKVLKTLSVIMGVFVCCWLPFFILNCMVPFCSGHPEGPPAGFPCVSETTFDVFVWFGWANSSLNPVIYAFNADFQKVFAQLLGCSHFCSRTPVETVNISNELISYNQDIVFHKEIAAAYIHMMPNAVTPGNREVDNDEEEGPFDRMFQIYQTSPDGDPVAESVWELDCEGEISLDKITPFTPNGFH
Sequence of Histamine H4 receptor (Homo sapiens) (Q9H3N8 whole entry): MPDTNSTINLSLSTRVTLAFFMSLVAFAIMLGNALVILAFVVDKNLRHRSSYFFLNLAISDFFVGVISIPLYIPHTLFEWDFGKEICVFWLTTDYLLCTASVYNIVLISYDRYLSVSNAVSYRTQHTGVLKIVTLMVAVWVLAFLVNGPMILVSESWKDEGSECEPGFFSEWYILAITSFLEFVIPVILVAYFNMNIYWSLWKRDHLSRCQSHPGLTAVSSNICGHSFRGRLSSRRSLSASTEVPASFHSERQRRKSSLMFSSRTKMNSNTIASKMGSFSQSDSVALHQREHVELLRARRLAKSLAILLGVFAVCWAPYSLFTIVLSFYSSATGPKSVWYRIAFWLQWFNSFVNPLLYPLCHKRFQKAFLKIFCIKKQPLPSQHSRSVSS
Sequence of 5-hydroxytryptamine receptor 7 (Homo sapiens) (P34969 whole entry): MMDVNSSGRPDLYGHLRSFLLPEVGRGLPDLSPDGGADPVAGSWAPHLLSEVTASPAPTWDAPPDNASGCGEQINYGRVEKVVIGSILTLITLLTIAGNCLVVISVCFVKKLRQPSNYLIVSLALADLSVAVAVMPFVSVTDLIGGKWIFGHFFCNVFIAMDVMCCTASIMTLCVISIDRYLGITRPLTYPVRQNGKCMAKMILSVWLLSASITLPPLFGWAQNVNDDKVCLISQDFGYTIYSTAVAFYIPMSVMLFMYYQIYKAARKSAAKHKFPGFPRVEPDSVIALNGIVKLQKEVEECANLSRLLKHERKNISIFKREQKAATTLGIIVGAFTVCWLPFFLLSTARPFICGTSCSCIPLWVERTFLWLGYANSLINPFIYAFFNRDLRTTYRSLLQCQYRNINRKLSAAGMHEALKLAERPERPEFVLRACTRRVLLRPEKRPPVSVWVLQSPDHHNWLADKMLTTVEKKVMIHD
Sequence of Histamine H2 receptor (Homo sapiens) (P25021 whole entry): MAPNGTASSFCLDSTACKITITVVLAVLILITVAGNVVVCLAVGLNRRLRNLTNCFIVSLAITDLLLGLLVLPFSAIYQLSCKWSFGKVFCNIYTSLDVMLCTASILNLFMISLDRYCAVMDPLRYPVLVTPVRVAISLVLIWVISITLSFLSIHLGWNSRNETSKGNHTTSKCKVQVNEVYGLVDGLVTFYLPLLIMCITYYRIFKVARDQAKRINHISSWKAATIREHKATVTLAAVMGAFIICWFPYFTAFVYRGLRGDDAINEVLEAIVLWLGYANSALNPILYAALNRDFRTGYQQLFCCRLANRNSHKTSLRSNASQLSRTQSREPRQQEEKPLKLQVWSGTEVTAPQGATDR
Sequence of Delta-type opioid receptor (Homo sapiens) (P41143 whole entry): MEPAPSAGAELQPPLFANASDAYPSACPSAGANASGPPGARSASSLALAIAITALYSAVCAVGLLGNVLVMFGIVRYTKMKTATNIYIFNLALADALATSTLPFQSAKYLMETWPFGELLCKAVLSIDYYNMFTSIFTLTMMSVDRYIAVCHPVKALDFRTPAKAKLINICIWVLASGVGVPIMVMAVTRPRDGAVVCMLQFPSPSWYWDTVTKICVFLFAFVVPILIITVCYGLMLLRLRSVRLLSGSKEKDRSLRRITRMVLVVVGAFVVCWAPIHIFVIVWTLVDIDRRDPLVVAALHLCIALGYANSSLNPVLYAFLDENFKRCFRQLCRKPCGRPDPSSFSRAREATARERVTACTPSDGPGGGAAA
Sequence of 5-hydroxytryptamine receptor 1D (Homo sapiens) (P28221 whole entry): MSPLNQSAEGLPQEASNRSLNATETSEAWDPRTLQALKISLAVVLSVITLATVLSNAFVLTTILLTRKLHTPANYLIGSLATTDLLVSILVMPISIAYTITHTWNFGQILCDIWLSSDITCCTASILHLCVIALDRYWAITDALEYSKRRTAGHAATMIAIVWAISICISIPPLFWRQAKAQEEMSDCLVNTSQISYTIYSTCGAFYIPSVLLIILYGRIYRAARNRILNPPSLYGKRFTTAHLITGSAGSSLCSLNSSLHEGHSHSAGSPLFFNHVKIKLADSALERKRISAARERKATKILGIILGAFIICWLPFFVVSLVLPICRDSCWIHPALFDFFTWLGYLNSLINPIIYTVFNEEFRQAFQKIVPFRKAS

What does the source list for `CCCOc1ccc([C@H]2[C@H](C(=O)O)[C@@H](c3ccc4c(c3)OCO4)CN2CC(=O)Nc2c(CC)cccc2CC)cc1` [A-192621]?
inhibition [1]: -3.72%; inhibition [2]: 9.89%; inhibition [3]: 11%; inhibition [4]: 5.57%; inhibition [5]: 7.94%; inhibition [6]: 19.6%; inhibition [7]: 5.77%; inhibition [8]: -3.09%; IC50 (Endothelin-1 receptor): > 1 µM (not active)
